Test results reported in patent publication US20190008919A1, “ETA RECEPTOR ANTAGONISTS AND METHODS OF USING THE SAME TO TREAT CARDIOVASCULAR DISORDERS AND DISEASE” (priority 2017, published 2019).
Non-standard residues stand in square brackets, D forms with d. Residues, ends and D or L forms follow the SMILES beside them.

What was measured:
left ventricle = assay: Heart and left ventricle weights; assay type: in vivo, Wistar rats; conditions: compared to sham
Protocol: (§1) Rats in group 2 received continuous BQ-123 infusion (1 mg/kg/day) for 21 days through Osmotic minipump implantation after 12 weeks of aortic NCR. BQ-123 (Peptides International Inc., Louisville, Ky.) was dissolved in saline containing 0.5% dimethyl sulphoxide (DMSO). The Osmotic minipump (model 2002, Durect Corporation, CA) was subcutaneously implanted on the side of abdomen in rats. Sham rats received continuous saline infusion through Osmotic minipumps for 21 days.
(§2) After measurement of pressure and flow from a branch of femoral artery, water-resistant carbon particles were used to mark the same vessel segment (400˜500 μm in diameter) to measure axial changes as described in a publication by Guo et al. The external geometry of the arterial segment was photographed to obtain the outer diameter and in vivo axial length with the aid of a dissecting microscope. The arterial segment was than harvested for endothelial function and mechanical testing and histological analysis. The heart was harvested to calculate the wet weight.

ET-1 = assay: Serum ET-1 level (ELISA); assay type: in vivo, Wistar rats; conditions: FIG. 6; not significantly different from the sham
Protocol: as §1
Blood samples were collected in ethylenediaminetetraacetic acid (EDTA) tubes for all experimental rats. After centrifugation at 5000 rpm and 4° C. for 15 min, serum was immediately separated and stored at −80° C. until analysis. The circulating level of ET-1 in serum was measured by ELISA kit (R&D system, MN).

Body weight = assay type: in vivo, Wistar rats; conditions: Exp rats, 12 weeks aortic NCR then BQ-123 1 mg/kg/day continuous infusion 3 weeks; mean ± SEM
Protocol: (§3) Twenty seven Wistar rats at age of 17-18 weeks were randomly divided into three groups. Group 1 (n=10) underwent aortic NCR for 12 weeks and was terminated at the end of 12 weeks. Group 2 (n=9) underwent aortic NCR for 12 weeks, then received continuous BQ-123 infusion for 3 weeks. The animals were terminated at the end of 15 weeks. Group 3 (n=8) was used as the sham-operated control for groups 1 and 2. All animal experiments were performed in accordance with national and local ethical guidelines, including the Institute of Laboratory Animal Research guidelines, Public Health Service policy, the Animal Welfare Act, as approved by Institutional Animal Care and Use Committee at California Medical Innovations Institute, San Diego.
as §1

[1] = system: aortic stiffening-induced hypertension rat model; assay: Pressure, pulse wave velocity and peripheral flow measurement in aortic NCR (aortic stiffening-induced hypertension) rats; assay type: in vivo, Wistar rats
Protocol: as §3
Animals were anesthetized with 1-2% isoflurane by air inhalation. A pressure catheter (Mikro-tip SPR-407, Millar Instruments, Houston, Tex.,) was inserted in the aortic arch (proximal site) via the right carotid artery. Heparin (200 U/ml) was used to prevent blood clots in the vessels. Another pressure transducer (Mikro-tip SPR-671) was advanced retrogradely into the abdominal aorta (distal site) via the right femoral artery. The central and peripheral aortic blood pressure waveforms were recorded from these two locations simultaneously during the procedure. A branch (400˜500 μm in diameter) of the left femoral artery was exposed carefully. A flow probe (0.5 mm ID) connected to a flow meter (Transonic systems, Ithaca, N.Y.) was then placed around it and local flow rate was recorded for at least 30 minutes. Following the measurement of blood pressure, the small cuts for cannulation on the carotid and femoral arteries were repaired by 11-0 sutures to restore flow.
A laparotomy (about 3.0 cm) was performed. The distal abdominal aorta between renal and common iliac artery was carefully exposed and tissue glue (cyanoacrylate formulation, Dermabond, Ethicon, NJ) was coated over a length of the aorta. After allowing 5-10 minutes for the glue to harden, a stiff coating formed and covered the anterior and bilateral sides of the aorta with an axial length of 3.0-3.5 cm. The sham group underwent an identical surgical procedure, but without application of glue on the aorta (i.e., the same amount of glue was left near the aorta area with no direct contact with the aorta).
as §1
Pulse wave velocity (PWV) calculation is based on the difference in arrival times of the pressure wave at the proximal (aorta arch) and distal (abdominal aorta) locations. Since the pressure transducer is visible on radiographs, the propagation distance between the proximal and distal site was obtained by imaging the animal with the two transducers implantation under an X-ray machine (Philips Fluoroscopy System, FIG. 1). PWV (m/s) was calculated by dividing the propagation distance by the difference among the two arrival times (transit time).
The reverse to forward flow ratio (indicative of the extent of peripheral flow reversal) in peripheral small artery was calculated as: R/F ratio=Qrev/Qfwd×100(%), where Qrev and Qfwd are the reverse and forward peak flow rate, respectively (as shown in FIG. 3A). […]

[2] = system: peripheral small arteries; assay: Elastin and collagen contents by multiphoton microscopy; assay type: in vivo, Wistar rats
Protocol: as §1
The elastin and collagen in small peripheral arteries were imaged by using a Multiphoton microscope (MPM) as described by Huan et al. Briefly, the arterial segment was fixed with 4% paraformaldehyde in phosphate buffer for 4 hours. The vessel was then transferred to a cryomold containing OCT embedding medium, and frozen in liquid nitrogen. Frozen transverse sections (7 μm) were cut onto glass slide and visualized by the MPM with a combined SHG/TPEF setup (Zeiss LSM 710 NLO). Serial optical sections were simultaneously captured by using the 520 nm line for elastin and the 415 nm line for collagen. All the images were taken under identical conditions of laser intensity, brightness, and contrast. Fluorescence intensity values were used as estimates of elastin and collagen concentration and quantitatively analyzed by Image J.

[3] = system: peripheral small arteries; assay: Mechanical tests and morphometry of peripheral small arteries; assay type: in vivo, Wistar rats
Protocol: as §1, §2
The peripheral arterial segment was cannulated on both ends and fully relaxed in Ca^2+ free HEPES-PSS. The arterial segment was preconditioned with five cyclic changes in pressure from 0 to 140 mmHg. The pressure was then increased in 20 mmHg step increments from 20 to 140 mmHg in a staircase manner. The passive pressure-diameter relation was recorded. After the mechanical testing, the vessel segment was cut transversely into three or four rings. Each ring was photographed in the no-load state and then cut radially by a scissor to reveal the zero-stress state. The cross section of each sector was photographed 30 minutes after the radial cut (details in Guo et al.). The morphological measurements of the in vitro axial length, inner and outer circumference, wall thickness (WT), and area in the no-load and zero-stress state were made from the images using a morphometric analysis system (SigmaScan).
The loaded inner radius of vessel was determined from the incompressibility assumption. The incompressibility condition for a cylindrical vessel can be expressed as:
where ro and ri are the outer and inner radii at the loaded state, respectively. λZ=l/lo is the stretch ratio in the axial direction where l and lo are the vessel length in the loaded and no-load state, respectively and Ao is the wall area in the no-load state. The wall thickness, WT at the loaded state was computed as the difference between the outer and inner radius of the vessel at various pressures as:
The volume compliance (CV) of the artery was determined by the slope of the pressure-volume relationship; i.e., CV=ΔV/ΔP. […] The normalized CSA compliance (CCSA) was determined similarly as CCSA=ΔCSA/(ΔP·CSA) at the physiological pressure as described in our previous publication.

[4] = system: peripheral small arteries; assay: Endothelial function of peripheral small arteries (isovolumic myograph, ex vivo) after in vivo treatment; design: species or system Wistar rats
Protocol: as §1, §2
An isovolumic myograph recently developed by our group was used to evaluate the endothelium-dependent vasorelaxation. The small peripheral arterial segment was cannulated on both ends in a physiological bath with HEPES physiologic saline solution (HEPES-PSS, concentration in mmol/l: 142 NaCl, 4.7 KCl, 2.7 sodium HEPES, 3 HEPES acid, 0.15 NaHPO4, 1.17 MgSO4, 2.79 CaCl^2, and 5.5 glucose, solution gassed by 95% O2 plus 5% CO2) and stretched to in situ length. The pressure and external diameter were measured with a pressure transducer (Mikro-Tip SPR-524; Millar Instruments) and a digital diameter tracking (DiamTrak v3+; Australia), respectively. The vessel segment was pre-constricted with phenylephrine (PE) by a series of doses (10^−10 to 10^−5 mol/L in the PSS), and then relaxed with acetylcholine (ACh) by a series of doses: 10^−10 to 10^−5 mol/L. The endothelium-independent relaxation to sodium nitroprusside (SNP, 10^−5 mol/L) was measured to verify the sensitivity of vascular smooth muscle to NO. The overall contractility of vessel was tested with potassium chloride (KCl) at 60 mmol/L. Contraction was expressed as percentage of the response to KCl. Relaxation was expressed as percentage of pre-contraction to PE.
Results were shown as mean±standard error of mean (mean±SEM). The significance of the differences between two groups was evaluated by either t-test or One-way ANOVA. For each dose-response curve to agents, the maximum effect (Emax) and bolus dose that produced half-maximal relaxation or contraction (expressed as pED50) were obtained by fitting the experimental data with a sigmoidal dose response curve. A least-squares fitting function, FindFit (Wolfram Mathematica software, Illinois, USA) was used. Significant differences among the three groups for dose-dependent curves (FIGS. 10B and 7A) were determined by Two-way ANOVA (SigmaStat, California, USA). The results were considered statistically significant when P<0.05 (2-tailed).

[5] = Exp rats, 12 weeks aortic NCR then BQ-123 1 mg/kg/day infusion 3 weeks, mean ± SEM
[6] = branch of femoral artery, Exp rats, 12 weeks aortic NCR then BQ-123 infusion 3 weeks, mean ± SEM

## CC(C)C[C@@H]1NC(=O)[C@@H](C(C)C)NC(=O)[C@@H]2CCCN2C(=O)[C@@H](CC(=O)O)NC(=O)[C@@H](Cc2c[nH]c3ccccc23)NC1=O [BQ-123, 2-[(3R,6R,9S,12R,15S)-6-(1H-indol-3-ylmethyl)-9-(2-methylpropyl)-2,5,8,11,14-pentaoxo-12-propan-2-yl-1,4,7,10,13-pentazabicyclo[13.3.0]octadecan-3-yl]acetic acid] (cyclo(L[dW][dD]P[dV]))
Left ventricle
  wet weights of the hearts: did not change
Left ventricle; p<0.05, FIG. 2
  LV weight/heart weight ratio (LV/HW): significant increase
ET-1
  serum ET-1 level: restored to pre-intervention level
Body weight
  Body Weight: 641.3 ± 18.9 g
[1]; [5]
  Central aortic blood pressure, Diastolic pressure: 94.8 ± 3.2 mmHg
  Central aortic blood pressure, Mean pressure: 115.0 ± 3.8 mmHg
  Central aortic blood pressure, Pulse pressure: 38.5 ± 1.8 mmHg
  Central aortic blood pressure, Systolic pressure: 133.3 ± 3.9 mmHg
  Heart rate: 353.0 ± 6.9 beats/min
  PWV: 4.1 ± 0.3 m/s
  Peripheral aortic blood pressure, Diastolic pressure: 87.6 ± 3.5 mmHg
  Peripheral aortic blood pressure, Mean pressure: 108.0 ± 4.5 mmHg
  Peripheral aortic blood pressure, Pulse pressure: 45.8 ± 2.1 mmHg
  Peripheral aortic blood pressure, Systolic pressure: 133.4 ± 5.1 mmHg
[1]; FIG. 3B, after 3 weeks BQ-123 in NCR rats
  wall shear stress (WSS) in peripheral small arteries: returned to the sham level
[1]; Qrev/Qfwd×100, Exp rats, 12 weeks aortic NCR then BQ-123 infusion 3 weeks, mean ± SEM
  Reverse/forward flow ratio: 7.6 ± 1.4 %
[1]; [6]
  Peripheral flow rate, Forward flow: 0.34 ± 0.04 mL/min
  Peripheral flow rate, Mean flow: 0.099 ± 0.008 mL/min
  Peripheral flow rate, Reverse flow: -0.026 ± 0.007 mL/min
[2]; FIG. 5B, after 3 weeks BQ-123
  total collagen content of peripheral arteries: returned to normal levels
[2]; FIG. 5C, after 3 weeks of treatment
  elastin to collagen ratio: restored to normal levels
[2]; between NCR, BQ-123 treatment and sham groups
  total elastin contents: No difference
[3]; compared to NCR group, not statistically significant, FIG. 4A
  wall thickness (WT, intima-media thickness): downward trend
[3]; compared to NCR group, not statistically significant, FIG. 4B
  wall thickness-to-radius (WTTR) ratio: downward trend
[3]; compared with NCR group p=0.02, not fully restored vs sham (p=0.06), FIG. 4C
  normalized CSA compliance: significantly increased
[3]; sham, NCR and BQ-123 groups, FIG. 10A
  outer diameter of the peripheral small arteries: no changes
[4]; FIG. 7A, vs aortic NCR group, p<0.05, 2-way ANOVA
  endothelium-dependent vasodilation in response to acetylcholine (dose-response curve): totally recovered
[4]; FIG. 10B, vs sham and aortic NCR
  contractions to phenylephrine (PE): did not affect this response
[4]; KCl 60 mmol/L, among the 3 groups, FIG. 10C
  vascular contraction to potassium chloride (KCl): no significant difference
[4]; SNP 10^−5 mol/L, arteries of BQ-123 treated NCR rats (sham 96%, NCR 74%)
  maximal endothelium-independent relaxation to sodium nitroprusside (SNP): 98%
[4]; acetylcholine concentration-response curve, PE pre-contracted peripheral small arteries of BQ-123 treated NCR rats, mean ± SEM
  Emax: 88.5 ± 7.9%
[4]; phenylephrine concentration-response curve, peripheral small arteries of BQ-123 treated NCR rats, mean ± SEM
  Phenylephrine Emax (%): 72.4 ± 6.3 negative log mol/L
